Assay in all cases: ≥ marks a high value that may be exact or a test limit, other limits are often not marked, values filed in µg/mL are converted to µM
Test [1] deals with Escherichia coli BL21.
Test [2] has as its system Pseudomonas aeruginosa PAO1.
Test [3] concerns Streptococcus pyogenes M1T1 5448.
The test system of test [4] is Escherichia coli PCM 2057.
In test [5] the test system is Enterococcus faecalis.
Test [6] concerns Escherichia coli W3110.
In test [7] the test system is Pseudomonas aeruginosa PAK.
In test [8] the test system is Staphylococcus aureus.
For test [9], the system named is Streptococcus gordonii Challis DL1.
Test [10] relates to Streptococcus mitis ATCC 903.
Test [11] deals with Streptococcus mutans UA159.
Test [12] has as its system Streptococcus sanguinis NY101.
Test [13] relates to Streptococcus sobrinus ATCC 33478.
Test [14] deals with Aureobasidium pullulans.
For test [15], the system named is Bacillus megaterium.
In test [16] the test system is Bacillus subtilis ATCC 23857.
For test [17], the system named is Candida albicans ATCC 10231.
For test [18], the system named is Corynebacterium glutamicum ATCC 13032.
Test [19] concerns Escherichia coli ATCC 25922.
Test [20] relates to Micrococcus luteus.
Test [21] has as its system Pseudomonas aeruginosa ATCC 27853.
The test system of test [22] is Staphylococcus aureus ATCC 9144.
The test system of test [23] is Salmonella sp.
The subject of test [24] is Pseudomonas aeruginosa MR3007.
Test [25] has as its system Staphylococcus aureus 930918-3.
In test [26] the test system is Staphylococcus aureus ATCC 33591.
Test [27] deals with Bacillus subtilis IFO 3336.
Test [28] deals with Escherichia coli IFO 3301.
The test system of test [29] is Bacillus licheniformis X39.
The test system of test [30] is Psychrobacter faecalis X29.
Test [31] concerns Rhodococcus rhodochrous X15.
For test [32], the system named is Staphylococcus aureus ATCC 2592.

SMILES strings stand for the structures. ≈ marks a conversion by molar mass, not a printed value. A value given as a limit tells only on which side of the number the result lay.

By MIC is commonly meant the lowest concentration found to suppress growth. Lower therefore signals a more susceptible organism. As for `CC[C@H](C)[C@H](NC(=O)[C@H](CCCCN)NC(=O)[C@H](CCCCN)NC(=O)[C@H](Cc1c[nH]c2ccccc12)NC(=O)[C@H](CCC(=O)O)NC(=O)[C@H](CC(N)=O)NC(=O)[C@@H](NC(=O)[C@@H](NC(=O)[C@H](CCCCN)NC(=O)[C@H](CCCCN)NC(=O)[C@H](CC(C)C)NC(=O)[C@H](CCCN=C(N)N)NC(=O)[C@H](CC(N)=O)NC(=O)[C@H](Cc1ccccc1)NC(=O)[C@@H](NC(=O)[C@H](CCCCN)NC(=O)[C@H](CCC(=O)O)NC(=O)[C@@H](NC(=O)CNC(=O)[C@H](C)N)[C@@H](C)O)[C@@H](C)CC)[C@@H](C)O)[C@@H](C)CC)C(=O)N[C@@H](C)C(=O)N[C@@H](CCCCN)C(=O)N[C@@H](CCCN=C(N)N)C(=O)N[C@@H](C)C(=O)N[C@@H](Cc1c[nH]c2ccccc12)C(=O)O` [AGTEKIFNRLKKTINEWKKIAKRAW], the MIC amounted to 4 µM (≈ 12.1 µg/mL) in [1], 16 µM (≈ 48.5 µg/mL) in [2] and 8 µM (≈ 24.2 µg/mL) in test [3].
Consider `CC[C@H](C)[C@H](NC(=O)[C@H](CCCCN)NC(=O)[C@H](CCCCN)NC(=O)CNC(=O)[C@H](CCC(=O)O)NC(=O)[C@H](CCC(N)=O)NC(=O)[C@@H](NC(=O)[C@@H](NC(=O)[C@H](CCCCN)NC(=O)[C@H](CCCCN)NC(=O)[C@H](CC(C)C)NC(=O)[C@H](CCCN=C(N)N)NC(=O)[C@H](CCC(N)=O)NC(=O)[C@H](Cc1ccccc1)NC(=O)[C@@H](NC(=O)[C@H](CCCCN)NC(=O)[C@H](CCC(=O)O)NC(=O)[C@@H](NC(=O)CNC(=O)[C@H](C)N)[C@@H](C)O)[C@@H](C)CC)[C@@H](C)O)[C@@H](C)CC)C(=O)N[C@@H](C)C(=O)N[C@@H](CCCCN)C(=O)N[C@@H](CCCN=C(N)N)C(=O)N[C@@H](Cc1c[nH]c2ccccc12)C(=O)N[C@@H](Cc1c[nH]c2ccccc12)C(=O)O` [AGTEKIFQRLKKTIQEGKKIAKRWW], for which the MIC in [1] came to 0.25 µM (≈ 0.761 µg/mL); in test [2] it was 16 µM (≈ 48.7 µg/mL); in test [3], 0.125 µM (≈ 0.381 µg/mL).
Take `CC[C@H](C)[C@H](NC(=O)[C@H](CC(N)=O)NC(=O)[C@H](C)NC(=O)[C@H](C)N)C(=O)N1CCC[C@H]1C(=O)N[C@@H](Cc1ccccc1)C(=O)N[C@@H](CCCCN)C(=O)N[C@H](C(=O)N[C@@H](Cc1cnc[nH]1)C(=O)N[C@@H](Cc1ccccc1)C(=O)N[C@@H](CCCN=C(N)N)C(=O)N[C@H]1CSSC[C@@H](C(=O)O)NC(=O)[C@H](Cc2ccccc2)NC(=O)[C@H](C)NC(=O)[C@H](C)NC(=O)[C@H](CCCCN)NC1=O)C(C)C` [AANIPFKVHFRCKAAFC]: in [4], the MIC was no less than 520 µM.
Regarding `CC[C@H](C)[C@H](NC(=O)[C@H](Cc1cnc[nH]1)NC(=O)[C@H](CCCCN)NC(=O)[C@@H](NC(=O)[C@@H](N)CC(C)C)[C@@H](C)CC)C(=O)N[C@@H](CC(C)C)C(=O)N[C@@H](Cc1cnc[nH]1)C(=O)N[C@@H](CCCN=C(N)N)C(=O)N[C@@H](CC(C)C)C(N)=O` [LIKHILHRL], the MIC was no less than 438 µM in test [5]; no less than 438 µM in [6]; no less than 438 µM in test [7]; greater than 438 µM in [8]; no less than 438 µM in test [9]; no less than 438 µM in test [10]. The values for the MIC in [11], in [12] and in test [13] were no less than 109 µM, no less than 438 µM and no less than 438 µM, respectively.
In the case of `C[C@H](NC(=O)[C@H](CCCCN)NC(=O)[C@H](Cc1c[nH]c2ccccc12)NC(=O)CNC(=O)[C@H](Cc1c[nH]c2ccccc12)NC(=O)[C@@H]1CCCN1C(=O)[C@H](CCCCN)NC(=O)[C@H](CCCCN)NC(=O)CN)C(=O)N[C@@H](CCCCN)C(N)=O` [GKKPWGWKAK], the MIC in test [14] was no less than 52.7 µM; in test [15], 3.29 µM (≈ 3.9 µg/mL); in test [16], no less than 211 µM; in [17], 105 µM (≈ 125 µg/mL); in [18] it was 13.2 µM (≈ 15.6 µg/mL); in [19], greater than 211 µM. In addition, the results for the MIC in test [20], in test [21] and in test [22] were no less than 211 µM, greater than 211 µM and no less than 211 µM, respectively.
For `C[C@@H](O)[C@H](NC(=O)[C@H](Cc1c[nH]c2ccccc12)NC(=O)[C@H](Cc1c[nH]c2ccccc12)NC(=O)[C@H](Cc1ccc(O)cc1)NC(=O)[C@H](CO)NC(=O)[C@H](Cc1c[nH]c2ccccc12)NC(=O)[C@@H](N)Cc1c[nH]c2ccccc12)C(=O)N[C@@H](CCC(N)=O)C(=O)N[C@@H](Cc1c[nH]c2ccccc12)C(N)=O` [WWSYWWTQW], the MIC was no less than 87.5 µM in [5]; no less than 87.5 µM in [6]; no less than 87.5 µM in test [7]; greater than 87.5 µM in test [8]; no less than 87.5 µM in [9]; no less than 87.5 µM in test [10]. For the same molecule, the MIC in test [11], in [12] and in test [13] was no less than 87.5 µM each time.
In [23], `CC[C@H](C)[C@H](NC(=O)[C@H](C)NC(=O)CNC(=O)[C@@H](NC(=O)[C@@H](N)Cc1ccccc1)[C@@H](C)CC)C(=O)N[C@@H](C)C(=O)N[C@@H](CCCN=C(N)N)C(=O)N[C@@H](CC(C)C)C(=O)N[C@@H](CC(C)C)C(=O)N[C@@H](CO)C(=O)N[C@@H](CCCCN)C(=O)N[C@H](C(=O)N[C@@H](Cc1ccccc1)C(=O)O)[C@@H](C)CC` [FIGAIARLLSKIF] had an MIC of no less than 90.5 µM.
In the case of `CC[C@H](C)[C@H](NC(=O)[C@H](CCCCN)NC(=O)[C@H](CCC(N)=O)NC(=O)CNC(=O)[C@@H](NC(=O)[C@H](CCCCN)NC(=O)[C@H](CCCCN)NC(=O)[C@H](CC(C)C)NC(=O)[C@H](CCCCN)NC(=O)[C@H](CCC(=O)O)NC(=O)[C@H](CCCCN)NC(=O)[C@@H](NC(=O)[C@@H](N)CCCCN)[C@@H](C)CC)[C@@H](C)CC)C(=O)O` [KIKEKLKKIGQKI], the MIC in test [24], in [25] and in test [26] was no less than 160 µM each time.
For the molecule `NC(N)=NCCC[C@H](NC(=O)CNC(=O)[C@H](CCCN=C(N)N)NC(=O)CNC(=O)[C@H](CCCN=C(N)N)NC(=O)CNC(=O)[C@H](CCCN=C(N)N)NC(=O)CNC(=O)[C@@H](N)CCCN=C(N)N)C(=O)NCC(=O)O` [RGRGRGRGRG], the MIC in test [27] and in [28] was no less than 92.2 µM throughout.
Take `CC[C@H](C)[C@@H]1NC(=O)[C@H](CCCCN)NC(=O)[C@@H](NC(=O)[C@@H](NC(=O)[C@@H](NC(=O)[C@H](CCC(N)=O)NC(=O)[C@@H]2CCCN2C(=O)[C@H](CC(C)C)NC(=O)[C@H](Cc2ccccc2)NC(=O)[C@H](CC(N)=O)NC(=O)[C@H](C)NC(=O)[C@@H](NC(=O)[C@@H](NC(=O)CNC(=O)[C@H](C)NC(=O)[C@H](CC(C)C)NC(=O)[C@H](CC(C)C)NC(=O)[C@@H]2CCCN2C(=O)[C@H](CC(C)C)NC(=O)[C@@H](N)Cc2ccccc2)C(C)C)C(C)C)[C@@H](C)CC)[C@@H](C)CC)CSSC[C@@H](C(=O)O)NC(=O)[C@H](CCCCN)NC(=O)[C@H](CCCN=C(N)N)NC(=O)[C@H](C)NC1=O` [FLPLLAGVVANFLPQIICKIARKC]: the MIC worked out at 9.51 µM (≈ 25 µg/mL) in [29], 4.76 µM (≈ 12.5 µg/mL) in test [30], 1.18 µM (≈ 3.1 µg/mL) in [31] and 2.4 µM (≈ 6.3 µg/mL) in test [32].

The record behind these values is DBAASP.
